The first assay addresses T1, Human macrophage mannose receptor 1 (MRC1) (Homo sapiens, UniProt P22897).
T1 sequence (P22897 19-1456): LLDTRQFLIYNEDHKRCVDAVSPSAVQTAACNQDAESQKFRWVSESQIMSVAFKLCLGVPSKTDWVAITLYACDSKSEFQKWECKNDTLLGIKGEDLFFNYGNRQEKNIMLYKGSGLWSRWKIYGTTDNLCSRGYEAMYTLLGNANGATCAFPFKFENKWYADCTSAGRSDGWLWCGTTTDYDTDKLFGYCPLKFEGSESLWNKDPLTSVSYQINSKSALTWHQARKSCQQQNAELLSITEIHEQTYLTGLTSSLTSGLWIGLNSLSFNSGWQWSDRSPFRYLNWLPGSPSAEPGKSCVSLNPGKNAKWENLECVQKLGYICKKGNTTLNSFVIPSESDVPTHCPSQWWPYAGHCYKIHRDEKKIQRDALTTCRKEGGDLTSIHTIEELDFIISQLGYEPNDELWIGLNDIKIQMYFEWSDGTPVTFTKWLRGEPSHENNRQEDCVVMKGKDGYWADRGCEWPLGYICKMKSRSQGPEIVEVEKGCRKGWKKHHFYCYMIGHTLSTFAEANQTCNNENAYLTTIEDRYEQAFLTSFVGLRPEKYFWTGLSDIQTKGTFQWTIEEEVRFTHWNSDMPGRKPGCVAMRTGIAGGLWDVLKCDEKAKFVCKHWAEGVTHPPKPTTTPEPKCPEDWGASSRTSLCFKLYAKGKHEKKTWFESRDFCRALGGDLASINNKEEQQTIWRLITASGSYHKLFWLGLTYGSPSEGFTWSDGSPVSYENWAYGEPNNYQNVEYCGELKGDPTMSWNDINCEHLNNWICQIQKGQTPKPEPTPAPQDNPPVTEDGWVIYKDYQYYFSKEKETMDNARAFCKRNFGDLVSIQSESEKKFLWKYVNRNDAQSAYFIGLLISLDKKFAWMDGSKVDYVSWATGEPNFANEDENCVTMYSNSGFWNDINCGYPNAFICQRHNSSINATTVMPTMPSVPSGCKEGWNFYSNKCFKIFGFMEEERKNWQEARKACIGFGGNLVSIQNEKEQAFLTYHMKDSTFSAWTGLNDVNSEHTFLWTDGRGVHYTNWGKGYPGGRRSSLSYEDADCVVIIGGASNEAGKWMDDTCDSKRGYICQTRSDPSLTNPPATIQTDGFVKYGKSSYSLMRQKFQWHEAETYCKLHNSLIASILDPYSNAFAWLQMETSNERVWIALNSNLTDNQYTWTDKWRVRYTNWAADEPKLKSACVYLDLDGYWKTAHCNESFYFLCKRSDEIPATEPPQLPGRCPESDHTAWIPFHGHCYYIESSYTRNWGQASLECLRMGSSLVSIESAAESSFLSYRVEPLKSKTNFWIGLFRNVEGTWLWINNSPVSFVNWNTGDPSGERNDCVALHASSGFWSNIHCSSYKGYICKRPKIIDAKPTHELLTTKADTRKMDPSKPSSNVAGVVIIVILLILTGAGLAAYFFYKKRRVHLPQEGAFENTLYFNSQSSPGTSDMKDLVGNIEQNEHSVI
Kind of assay: MRC1 competition binding assay with Eu-mannosylated-BSA. The conditions noted are these: Method E: 96-well plate; IP = inflection point; read-out: MRC1 Binding IP.
Description: The competition binding assay for Human macrophage mannose receptor 1 (MRC1) utilized a ligand, mannosylated-BSA labeled with the DELFIA Eu-N1-ITC reagent, as reported in the literature. Assay was performed either in a 96-well plate with 100 μL well volume (Method E) or in a 384-well plate with 25 μL well volume (Method F). […] The antibody was incubated in the plate for 1 hr at rt with shaking. The plate was washed with wash buffer 3-5 times followed by addition of MRC1 (2 ng/μl final concentration) in PBS containing 1% stabilizer BSA. The plate was incubated at rt with gentle shaking for 1 hr. The plate was washed three times with wash buffer. The IOC molecules in 12.5 μL (or 50 μL depending on plate format) buffer at appropriate concentrations were added followed by 12.5 μL (or 50 μL) Eu-mannosylated-BSA (0.1 nm final concentration) in 50 mM Tris, pH 7.5 containing 100 mM NaCl, 5 mM CaCl2, 1 mM MgCl2 and 0.2% stabilizer BSA. The plate was incubated for 2 hrs at rt with shaking followed by washing three times with wash buffer.
As for `CC(=O)[C@H](CCCCN)NC(=O)CCCCC(=O)N[C@@H](CCC(=O)NCCCCCC(=O)N(CCOC1O[C@H](CO)[C@@H](O)[C@H](O)[C@@H]1O)CCOC1O[C@H](CO)[C@@H](O)[C@H](O)[C@@H]1O)C(=O)N[C@@H](CCC(=O)NCCCCCC(=O)N(CCOC1O[C@H](CO)[C@@H](O)[C@H](O)[C@@H]1O)CCO[C@H]1O[C@H](CO)[C@@H](O)[C@H](O)[C@@H]1O)C(=O)N[C@@H](CC(C)C)C(=O)NCCCCCC(=O)N(CCOC1O[C@H](CO)[C@@H](O)[C@H](O)[C@@H]1O)CCOC1O[C@H](CO)[C@@H](O)[C@H](O)[C@@H]1O` (stereo partly shown) [IOC-49], the IC50 was 54.5 nM. As for `CC(=O)[C@H](CCCCN)NC(=O)CCCCC(=O)N[C@@H](CCC(=O)NCCCC[C@@H](C(=O)NCCO[C@H]1O[C@H](CO)[C@@H](O)[C@H](O)[C@@H]1O)N(CC(=O)NCCO[C@H]1O[C@H](CO)[C@@H](O)[C@H](O)[C@@H]1O)CC(=O)NCCO[C@H]1O[C@H](CO)[C@@H](O)[C@H](O)[C@@H]1O)C(=O)N[C@@H](CCC(=O)NCCCC[C@@H](C(=O)NCCO[C@H]1O[C@H](CO)[C@@H](O)[C@H](O)[C@@H]1O)N(CC(=O)NCCO[C@H]1O[C@H](CO)[C@@H](O)[C@H](O)[C@@H]1O)CC(=O)NCCO[C@H]1O[C@H](CO)[C@@H](O)[C@H](O)[C@@H]1O)C(=O)N[C@@H](CC(C)C)C(=O)NCCCC[C@@H](C(=O)NCCO[C@H]1O[C@H](CO)[C@@H](O)[C@H](O)[C@@H]1O)N(CC(=O)NCCO[C@H]1O[C@H](CO)[C@@H](O)[C@H](O)[C@@H]1O)CC(=O)NCCO[C@H]1O[C@H](CO)[C@@H](O)[C@H](O)[C@@H]1O` [IOC-56], the IC50 came to 30.9 nM. As to `CC(=O)[C@H](CCCCN)NC(=O)CCCCC(=O)N[C@@H](CCC(=O)NCCCC[C@@H](C(=O)NCCO[C@@H]1O[C@H](CO)[C@@H](O)[C@H](O)[C@H]1O)N(CC(=O)NCCO[C@@H]1O[C@H](CO)[C@@H](O)[C@H](O)[C@H]1O)CC(=O)NCCO[C@@H]1O[C@H](CO)[C@@H](O)[C@H](O)[C@H]1O)C(=O)N[C@@H](CCC(=O)NCCCC[C@@H](C(=O)NCCO[C@@H]1O[C@H](CO)[C@@H](O)[C@H](O)[C@H]1O)N(CC(=O)NCCO[C@@H]1O[C@H](CO)[C@@H](O)[C@H](O)[C@H]1O)CC(=O)NCCO[C@@H]1O[C@H](CO)[C@@H](O)[C@H](O)[C@H]1O)C(=O)N[C@@H](CC(C)C)C(=O)NCCCC[C@@H](C(=O)NCCO[C@@H]1O[C@H](CO)[C@@H](O)[C@H](O)[C@H]1O)N(CC(=O)NCCO[C@@H]1O[C@H](CO)[C@@H](O)[C@H](O)[C@H]1O)CC(=O)NCCO[C@@H]1O[C@H](CO)[C@@H](O)[C@H](O)[C@H]1O` [IOC-57], the IC50 was 1560 nM.

Staying with this assay, now noted: Method F: 384-well plate; IP = inflection point; read-out: MRC1 Binding IP.
Consider `CC(=O)[C@H](CCCCN)NC(=O)CCCCCNC(=O)[C@H](CCCCNC(=O)[C@H](CCCCNC(=O)CCCCCNC(=O)CN(CC(=O)NCCO[C@H]1O[C@H](CO)[C@@H](O)[C@H](O)[C@@H]1O)CC(=O)NCCO[C@H]1O[C@H](CO)[C@@H](O)[C@H](O)[C@@H]1O)NC(=O)CN(CC(=O)NCCO[C@H]1O[C@H](CO)[C@@H](O)[C@H](O)[C@@H]1O)CC(=O)NCCO[C@H]1O[C@H](CO)[C@@H](O)[C@H](O)[C@@H]1O)NC(=O)CN(CC(=O)NCCO[C@@H]1O[C@@H](C)[C@@H](O)[C@@H](O)[C@@H]1O)CC(=O)NCCO[C@@H]1O[C@@H](C)[C@@H](O)[C@@H](O)[C@@H]1O` [IOC-46], for which the IC50 came to 58.3 nM. As to `CC(=O)[C@H](CCCCN)NC(=O)CCCCCNC(=O)[C@H](CCCCNC(=O)CN(CC(=O)NCCO[C@@H]1O[C@@H](C)[C@@H](O)[C@@H](O)[C@@H]1O)CC(=O)NCCO[C@@H]1O[C@@H](C)[C@@H](O)[C@@H](O)[C@@H]1O)NC(=O)[C@H](CCCCNC(=O)CN(CC(=O)NCCO[C@@H]1O[C@@H](C)[C@@H](O)[C@@H](O)[C@@H]1O)CC(=O)NCCO[C@@H]1O[C@@H](C)[C@@H](O)[C@@H](O)[C@@H]1O)NC(=O)CN(CC(=O)NCCO[C@@H]1O[C@@H](C)[C@@H](O)[C@@H](O)[C@@H]1O)CC(=O)NCCO[C@@H]1O[C@@H](C)[C@@H](O)[C@@H](O)[C@@H]1O` [IOC-47], the IC50 came out at 10.6 nM. `CC(=O)[C@H](CCCCN)NC(=O)CCCCC(=O)NCC(=O)N[C@@H](CCC(=O)N[C@@H](CCC(=O)NCCCCCC(=O)N(CCOC1O[C@H](CO)[C@@H](O)[C@H](O)[C@@H]1O)CCO[C@H]1O[C@H](CO)[C@@H](O)[C@H](O)[C@@H]1O)C(=O)NCCCCCC(=O)N(CCOC1O[C@H](CO)[C@@H](O)[C@H](O)[C@@H]1O)CCOC1O[C@H](CO)[C@@H](O)[C@H](O)[C@@H]1O)C(=O)NCCCCCC(=O)N(CC(=O)NCCO[C@@H]1O[C@@H](C)[C@@H](O)[C@@H](O)[C@@H]1O)CC(=O)NCCO[C@@H]1O[C@@H](C)[C@@H](O)[C@@H](O)[C@@H]1O` (stereo partly shown) [IOC-51]: the IC50 worked out at 28.8 nM. Take `CC(=O)[C@H](CCCCN)NC(=O)CCCCCNC(=O)[C@H](CCCCNC(=O)CCCCCNC(=O)CCCCCNC(=O)CN(CC(=O)NCCO[C@H]1O[C@H](CO)[C@@H](O)[C@H](O)[C@@H]1O)CC(=O)NCCO[C@H]1O[C@H](CO)[C@@H](O)[C@H](O)[C@@H]1O)NC(=O)[C@H](CCCCNC(=O)CCCCCNC(=O)CN(CC(=O)NCCO[C@H]1O[C@H](CO)[C@@H](O)[C@H](O)[C@@H]1O)CC(=O)NCCO[C@H]1O[C@H](CO)[C@@H](O)[C@H](O)[C@@H]1O)NC(=O)CCCCCNC(=O)CN(CC(=O)NCCO[C@H]1O[C@H](CO)[C@@H](O)[C@H](O)[C@@H]1O)CC(=O)NCCO[C@H]1O[C@H](CO)[C@@H](O)[C@H](O)[C@@H]1O` [IOC-52]: the IC50 turned out to be 49.1 nM. Take `CC(=O)[C@H](CCCCN)NC(=O)CCCCCNC(=O)[C@H](CCCCNC(=O)CCCCCNC(=O)CCCCCNC(=O)CN(CC(=O)NCCO[C@H]1O[C@H](CO)[C@@H](O)[C@H](O)[C@@H]1O)CC(=O)NCCO[C@@H]1O[C@@H](C)[C@@H](O)[C@@H](O)[C@@H]1O)NC(=O)[C@H](CCCCNC(=O)CCCCCNC(=O)CN(CC(=O)NCCO[C@H]1O[C@H](CO)[C@@H](O)[C@H](O)[C@@H]1O)CC(=O)NCCO[C@@H]1O[C@@H](C)[C@@H](O)[C@@H](O)[C@@H]1O)NC(=O)CCCCCNC(=O)CN(CC(=O)NCCO[C@H]1O[C@H](CO)[C@@H](O)[C@H](O)[C@@H]1O)CC(=O)NCCO[C@@H]1O[C@@H](C)[C@@H](O)[C@@H](O)[C@@H]1O` [IOC-53]: the IC50 is 9.22 nM. In the case of `CC(=O)[C@H](CCCCN)NC(=O)CCCCC(=O)N[C@@H](CCC(=O)N[C@@H](CCC(=O)N[C@@H](CCC(=O)N[C@@H](CCC(=O)N[C@@H](CCC(=O)NCCO[C@@H]1O[C@@H](C)[C@@H](O)[C@@H](O)[C@@H]1O)C(=O)NCCO[C@@H]1O[C@@H](C)[C@@H](O)[C@@H](O)[C@@H]1O)C(=O)NCCO[C@@H]1O[C@@H](C)[C@@H](O)[C@@H](O)[C@@H]1O)C(=O)NCCO[C@@H]1O[C@@H](C)[C@@H](O)[C@@H](O)[C@@H]1O)C(=O)NCCO[C@@H]1O[C@@H](C)[C@@H](O)[C@@H](O)[C@@H]1O)C(=O)NCCO[C@@H]1O[C@@H](C)[C@@H](O)[C@@H](O)[C@@H]1O` [IOC-54], the IC50 came out at 8.91 nM.

With `CC(=O)[C@H](CCCCN)NC(=O)CCCCCNC(=O)[C@H](CCCCNC(=O)[C@H](CCCCNC(=O)[C@H](CCCCNC(=O)[C@H](CCCCNC(=O)CCCCCCNC(=O)CN(CC(=O)NCCO[C@H]1O[C@H](CO)[C@@H](O)[C@H](O)[C@@H]1O)CC(=O)NCCO[C@H]1O[C@H](CO)[C@@H](O)[C@H](O)[C@@H]1O)NC(=O)CN(CC(=O)NCCO[C@H]1O[C@H](CO)[C@@H](O)[C@H](O)[C@@H]1O)CC(=O)NCCO[C@H]1O[C@H](CO)[C@@H](O)[C@H](O)[C@@H]1O)NC(=O)CN(CC(=O)NCCO[C@H]1O[C@H](O)[C@@H](O)[C@H](O)[C@@H]1O)CC(=O)NCCO[C@H]1O[C@H](CO)[C@@H](O)[C@H](O)[C@@H]1O)NC(=O)CN(CC(=O)NCCO[C@H]1O[C@H](CO)[C@@H](O)[C@H](O)[C@@H]1O)CC(=O)NCCO[C@H]1O[C@H](CO)[C@@H](O)[C@H](O)[C@@H]1O)NC(=O)CN(CC(=O)NCCO[C@H]1O[C@H](CO)[C@@H](O)[C@H](O)[C@@H]1O)CC(=O)NCCO[C@H]1O[C@H](CO)[C@@H](O)[C@H](O)[C@@H]1O` [IOC-60], the IC50 was 86.4 nM.

The values above are taken from patent publication US12427187B2, “Glucose-responsive insulin conjugates” (priority 2019, dated 2025).
